{
  "source": "patent US20200325453A1",
  "about": "“METHOD FOR PRODUCING NAÏVE PLURIPOTENT STEM CELLS” (priority 2015, published 2020)",
  "key": {"ESRRB [1]": {"system": "ESRRB", "test": "ESRRB gene expression by qPCR, effect of Forskolin and A83-01 on making naïve (Example 4)", "assay_type": "cell-based, human", "conditions": "201B7 cells; 10 μM Forskolin and 0.5 μM A83-01 added to 2iL+Go6983 medium"}, "ESRRB [2]": {"system": "ESRRB", "test": "ESRRB gene expression by qPCR, effect of Go6983 addition timing (Example 3)", "assay_type": "cell-based, human", "conditions": "201B7 cells passage 1; KSR 2iLFA medium with Go6983 (5 μM) versus without; doxycycline added; low oxygen", "method": "The iPS cells gene-introduced and cloned in “1.2 Generation of gene-introduced cell line” were dissociated into single cells by using a dissociation solution and TrypLE™ Select, and seeded in a 6-well plate at 1×10^5 cells/well in which MEF cells had been seeded as feeder. At this time, as a medium, 2iLFA+Go6983 medium shown in Table 1 (hereinafter, also abbreviated as “the medium of the present invention”) was used, and cultured in low oxygen in a state in which doxycycline (1 μg/mL) was further added so as to induce expression of the introduced gene (Passage 1; P1). Note here that on the first day of the start of making naïve, Y27632 (ROCK inhibitor) was added so as to be 10 μM, […]. On day 5 to 7 after the start of making naïve, subculturing was performed. The medium was removed, and then 350 μL of 0.25% Trypsin-EDTA was added in each well to cause reaction for one minute at 37° C. The reaction was stopped by Trypsin Inhibitor, and then 5 mL of medium was added thereto. Pipetting was carried out several times using PIPETTE AID to detach colonies of iPS cells from a sheet of feeder cells. The colonies were collected in a 15-mL tube. After centrifugation, a supernatant was removed, and 200 μL of medium was added, followed by pipetting using P200 […] about 40 times to be dissociated into single cells. […]"}},
  "data": [
    {"compound": "Cc1cccc(-c2nn(C(=S)Nc3ccccc3)cc2-c2ccnc3ccccc23)n1", "note": "[A83-01, 3-(6-methyl-2-pyridinyl)-N-phenyl-4-(4-quinolinyl)-1H-pyrazole-1-carbothioamide]", "values": [
      {"measurement": "maintenance of the naïve state of iPS cells after stopping induction of expression of the introduced gene", "setting": "ESRRB [1]", "value": "needed in order to maintain the naïve state of the iPS cells"}
    ]},
    {"compound": "COc1ccc2c(c1)c(C1=C(c3c[nH]c4ccccc34)C(=O)NC1=O)cn2CCCN(C)C", "note": "[Go6983, 3-[1-[3-(dimethylamino)propyl]-5-methoxy-1H-indole-3-yl]-4-(1H-indole-3-yl)-1H-pyrrole-2,5-dione]", "values": [
      {"measurement": "expression of ESRRB", "setting": "ESRRB [2]", "value": "higher expression of ESRRB"}
    ]}
  ]
}
